pIC50: −log10 of the molar value.

The pIC50 is the negative decadic logarithm of the IC50, by convention in mol/L. Lower therefore signals a high IC50.

In the assay the test system is Wnt signaling. Kind of assay: Wnt-Luc reporter assay for pathway inhibition of Wnt signaling. The conditions noted are these: Wnt-Luc reporter cells co-cultured with L-cell Wnt3a cells, 24 hours, luciferase signal reduced by 50%. In kind it is cell-based, mouse (TM3 Wnt-Luc) or human (293 Wnt-Luc); not stated which. As to the method:
This example provides a method that is useful for evaluating test compounds for inhibition of Wnt signaling.
Mouse leydig cell TM3 cells (obtained from American Type Culture Collection, ATCC, Manassas, Va.) are cultured in 1:1 mixture of Ham's F12 medium and Dulbecco's modified Eagle's medium (Gibco/Invitrogen, Carlsbad, Calif.) supplemented with 2.5% FBS (Gibco/Invitrogen, Carlsbad, Calif.) and 5% horse serum (Gibco/Invitrogen, Carlsbad, Calif.), 50 unit/mL penicillin and 50 μg/mL of streptomycin (Gibco/Invitrogen, Carlsbad, Calif.) at 37° C. with 5% CO2 in air atmosphere. TM3 cells in a 10 cm dish are co-transfected with 8 μg of STF-reporter plasmid containing a luciferase gene driven by Wnt-responsive elements and 2 μg of pcDNA3.1-Neo (Gibco/Invitrogen, Carlsbad, Calif.) with 30 μL of FuGENE6 (Roche Diagnostics, Indianapolis, Ind.) following the manufacturer's protocol. Stable cell lines (TM3 Wnt-Luc) were selected with 400 μg/mL of G418 (Gibco/Invitrogen, Carlsbad, Calif.). The TM3 Wnt-Luc cells and L-cell Wnt3a cells (obtained from American Type Culture Collection, ATCC, Manassas, Va.; cultured in Dulbecco's modified Eagle's medium (Gibco/Invitrogen, Carlsbad, Calif.) supplemented with 10% FBS (Gibco/Invitrogen, Carlsbad, Calif.) and 50 unit/mL penicillin and 50 μg/mL of streptomycin (Gibco/Invitrogen, Carlsbad, Calif.) at 37° C. with 5% CO2 in air atmosphere) are trypsinized and co-cultured into a 384-well plate with DMEM medium supplemented with 2% FBS, and treated with different concentrations of a compound of the invention. After 24 hours, the firefly luciferase activities are assayed with the Bright-Glo™ Luciferase Assay System (Promega, Madison, Wis.). The IC50 is measured when the effect of the compound reduces the luminescence signal by 50%.
This example provides another method that is useful for evaluating test compounds for inhibition of Wnt signaling.
Human embryonic kidney 293 cells (obtained from American Type Culture Collection, ATCC, Manassas, Va.) are cultured in DMEM medium (Gibco/Invitrogen, Carlsbad, Calif.) supplemented with 10% FBS (Gibco/Invitrogen, Carlsbad, Calif.), 50 unit/mL penicillin and 50 μg/mL of streptomycin (Gibco/Invitrogen, Carlsbad, Calif.) at 37° C. with 5% CO2 in air atmosphere. 293 cells in a 10 cm dish are co-transfected with 8 μg of STF-reporter plasmid containing a luciferase gene driven by Wnt-responsive elements and 2 μg of pcDNA3.1-Neo (Gibco/Invitrogen, Carlsbad, Calif.) with 30 μL of FuGENE6 (Roche Diagnostics, Indianapolis, Ind.) following the manufacturer's protocol. Stable cell lines (293 Wnt-Luc) were selected with 400 μg/mL of G418 (Gibco/Invitrogen, Carlsbad, Calif.). The 293 Wnt-Luc cells and L-cell Wnt3a cells (obtained from American Type Culture Collection, ATCC, Manassas, Va.) are trypsinized and co-cultured into a 384-well plate with DMEM medium supplemented with 2% FBS, and treated with different concentrations of a compound of the invention. After 24 hours, the firefly luciferase activities are assayed with the Bright-Glo™ Luciferase Assay System (Promega, Madison, Wis.). The IC50 is measured when the effect of the compound reduces the luminescence signal by 50%.
With `CC(=O)c1cccc(-c2ccc(C(=O)NCc3ccc(-c4ccnc(C)c4)nc3)nc2)c1` [compound 31, 5-(3-acetylphenyl)-N-{[6-(2-methylpyridin-4-yl)pyridin-3-yl]methyl}pyridine-2-carboxamide], the negative-log IC50 (pIC50) is 8.10.
The molecule `O=C(NCc1ccc(-c2ccnc(C(F)(F)F)c2)nc1)c1ccc(-c2cnccn2)cc1` [compound 32, 4-(pyrazin-2-yl)-N-({6-[2-(trifluoromethyl)pyridin-4-yl]pyridin-3-yl}methyl)benzamide] gave a pIC50 of 9.15.
In turn, `O=C(NCc1ccc(-c2ccnc(C(F)(F)F)c2)nc1)c1ccc(-c2cccc(F)c2)cn1` [compound 33, 5-(3-Fluorophenyl)-N-((2′-(trifluoromethyl)-2,4′-bipyridin-5-yl)methyl)picolinamide] showed a negative logarithm of the IC50 (pIC50) of 9.70.
The result for `Cc1cc(-c2ccc(CNC(=O)c3ccc(-c4ccc(F)cc4)cn3)cn2)ccn1` [compound 35, 5-(4-fluorophenyl)-N-{[6-(2-methylpyridin-4-yl)pyridin-3-yl]methyl}pyridine-2-carboxamide] reads 8.31; that for `Cc1cc(-c2ncc(CNC(=O)c3ccc(-c4cccc(F)c4)cn3)cc2C)ccn1` [compound 36, 5-(3-fluorophenyl)-N-{[5-methyl-6-(2-methylpyridin-4-yl)pyridin-3-yl]methyl}pyridine-2-carboxamide], 9.52.
Turning to `O=C(NCc1ccc(-c2ccnc(F)c2)nc1)c1ccc(-c2ccnnc2)cn1` [compound 37, N-{[6-(2-fluoropyridin-4-yl)pyridin-3-yl]methyl}-5-(pyridazin-4-yl)pyridine-2-carboxamide], the negative logarithm of the IC50 (pIC50) is 7.38.
As for `CN(C)c1ccc(-c2ccc(C(=O)NCc3ccc(-c4ccnc(F)c4)nc3)nc2)cn1` [compound 38, 6′-(Dimethylamino)-N-((2′-fluoro-2,4′-bipyridin-5-yl)methyl)-3,3′-bipyridine-6-carboxamide], the figure is 9.25.
Molecule `Cc1cc(CNC(=O)c2ccc(-c3cnccn3)cn2)cnc1-c1ccnc(F)c1` [compound 39, N-{[6-(2-fluoropyridin-4-yl)-5-methylpyridin-3-yl]methyl}-5-(pyrazin-2-yl)pyridine-2-carboxamide] had a negative-log IC50 (pIC50) of 9.59.
`Cc1cc(CNC(=O)c2ccc(-c3cnccn3)nc2)cnc1-c1ccnc(F)c1` [compound 40, N-{[6-(2-fluoropyridin-4-yl)-5-methylpyridin-3-yl]methyl}-6-(pyrazin-2-yl)pyridine-3-carboxamide] showed a pIC50 of 9.12.
Turning to `O=C(NCc1ccc(-c2ccnc(C(F)(F)F)c2)nc1)c1ccc(-c2cnccn2)cn1` [compound 41, 5-(Pyrazin-2-yl)-N-((2′-(trifluoromethyl)-2,4′-bipyridin-5-yl)methyl)picolinamide], the negative-log IC50 (pIC50) was 9.44.
Molecule `O=C(NCc1ccc(-c2ccnc(C(F)(F)F)c2)nc1)c1ccc(-c2cnccn2)nc1` [compound 42, 6-(Pyrazin-2-yl)-N-((2′-(trifluoromethyl)-2,4′-bipyridin-5-yl)methyl)nicotinamide] had a negative logarithm of the IC50 (pIC50) of 9.10.
Turning to `CS(=O)(=O)c1cccc(-c2ccc(C(=O)NCc3ccc(-c4ccnc(F)c4)nc3)nc2)c1` [compound 43, N-((2′-Fluoro-2,4′-bipyridin-5-yl)methyl)-5-(3-(methylsulfonyl)phenyl)picolinamide], the negative logarithm of the IC50 (pIC50) is 6.14.
The molecule `O=C(NCc1ccc(-c2ccnc(F)c2)nc1)c1ccc(-n2ccccc2=O)cn1` [compound 44, N-((2′-fluoro-[2,4′-bipyridin]-5-yl)methyl)-2-oxo-2H-[1,3′-bipyridine]-6′-carboxamide] had a negative logarithm of the IC50 (pIC50) of 6.33.
`Cc1cc(-c2ccc(CNC(=O)c3ccc(-c4ccccc4C)cc3)cn2)ccn1` [compound 45, 4-(2-methylphenyl)-N-{[6-(2-methylpyridin-4-yl)pyridin-3-yl]methyl}benzamide] gave a pIC50 of 8.46.
For the molecule `CC(=O)N1CCN(c2ccc(C(=O)NCc3cnc(-c4ccnc(C(F)(F)F)c4)c(F)c3)cn2)CC1` [compound 46, 6-(4-Acetylpiperazin-1-yl)-N-((3-fluoro-2′-(trifluoromethyl)-[2,4′-bipyridin]-5-yl)methyl)nicotinamide], the negative-log IC50 (pIC50) is 8.38.
`Cc1cc(CNC(=O)c2ccc(-c3cccc(F)c3)nc2)cnc1-c1ccnc(C(F)(F)F)c1` [compound 47, 6-(3-fluorophenyl)-N-({5-methyl-6-[2-(trifluoromethyl)pyridin-4-yl]pyridin-3-yl}methyl)pyridine-3-carboxamide] gave a pIC50 of 9.59.
`CC(=O)N1CCN(c2ccc(C(=O)NCc3cnc(-c4ccnc(C(F)(F)F)c4)c(C)c3)nc2)CC1` [compound 48, 5-(4-Acetylpiperazin-1-yl)-N-((3-methyl-2′-(trifluoromethyl)-2,4′-bipyridin-5-yl)methyl)picolinamide] showed a negative-log IC50 (pIC50) of 7.59.
`COC(=O)N1CCN(c2ccc(C(=O)NCc3cnc(-c4ccnc(C(F)(F)F)c4)c(F)c3)nc2)CC1` [compound 49, Methyl 4-(6-((3-fluoro-2′-(trifluoromethyl)-2,4′-bipyridin-5-yl)methylcarbamoyl)pyridin-3-yl)piperazine-1-carboxylate] had a pIC50 of 9.62.
`Cc1cc(-c2ccc(CNC(=O)c3ccc(-c4ccccc4)c(C)c3)cn2)ccn1` [compound 50, 3-methyl-N-{[6-(2-methylpyridin-4-yl)pyridin-3-yl]methyl}-4-phenylbenzamide] gave a negative logarithm of the IC50 (pIC50) of 8.52.
The result for `Cc1cc(CNC(=O)c2ccc(-c3cccnn3)nc2)cnc1-c1ccnc(F)c1` [compound 52, N-{[6-(2-fluoropyridin-4-yl)-5-methylpyridin-3-yl]methyl}-6-(pyridazin-3-yl)pyridine-3-carboxamide] reads 8.80.
For `Cc1cc(CNC(=O)c2ccc(-c3cccnn3)nc2)cnc1-c1ccnc(C(F)(F)F)c1` [compound 53, N-({5-methyl-6-[2-(trifluoromethyl)pyridin-4-yl]pyridin-3-yl}methyl)-6-(pyridazin-3-yl)pyridine-3-carboxamide], the pIC50 is 7.99.
Molecule `Cc1cc(CNC(=O)c2ccc(-c3cnccn3)nc2)cnc1-c1ccnc(C(F)(F)F)c1` [compound 54, N-({5-methyl-6-[2-(trifluoromethyl)pyridin-4-yl]pyridin-3-yl}methyl)-6-(pyrazin-2-yl)pyridine-3-carboxamide] showed a pIC50 of 8.92.
The molecule `Cc1cc(CNC(=O)c2ccc(-c3cnccn3)cn2)cnc1-c1ccnc(C(F)(F)F)c1` [compound 55, N-((3-Methyl-2′-(trifluoromethyl)-2,4′-bipyridin-5-yl)methyl)-5-(pyrazin-2-yl)picolinamide] gave a pIC50 of 9.10.
As for `O=C(NCc1ccn(-c2ccnc(C(F)(F)F)c2)c(=O)c1)c1ccc(-c2cnccn2)cn1` [compound 56, N-((2-oxo-1-(2-(trifluoromethyl)pyridin-4-yl)-1,2-dihydropyridin-4-yl)methyl)-5-(pyrazin-2-yl)picolinamide], the figure is 7.47; as for `Cc1cc(CNC(=O)c2ccc(-c3cccc(F)c3)cn2)cnc1-c1ccnc(C(F)(F)F)c1` [compound 57, 5-(3-fluorophenyl)-N-({5-methyl-6-[2-(trifluoromethyl)pyridin-4-yl]pyridin-3-yl}methyl)pyridine-2-carboxamide], 9.46; as for `Cc1cc(CNC(=O)c2ccc(-c3cnccn3)cc2)cnc1-c1ccnc(C(F)(F)F)c1` [compound 58, N-((3-Methyl-2′-(trifluoromethyl)-2,4′-bipyridin-5-yl)methyl)-4-(pyrazin-2-yl)benzamide], 9.39.

Values taken from US9181235B2, “Substituted pyridines for modulating the WNT signaling pathway” (NOVARTIS AG, priority 2010, dated 2015).
